Legend:
[1] = target: T1, RORγ ligand binding domain (LBD) (Homo sapiens, UniProt P51449); test: TR-FRET Activity Assay (ligand sensing assay, RORγ-LBD / coactivator peptide interaction); format: biochemical
T1 construct: made in house; host or cells: E. coli BL-21 (BL3), vector pDEST15
T1 sequence (P51449 269-508 limits assumed): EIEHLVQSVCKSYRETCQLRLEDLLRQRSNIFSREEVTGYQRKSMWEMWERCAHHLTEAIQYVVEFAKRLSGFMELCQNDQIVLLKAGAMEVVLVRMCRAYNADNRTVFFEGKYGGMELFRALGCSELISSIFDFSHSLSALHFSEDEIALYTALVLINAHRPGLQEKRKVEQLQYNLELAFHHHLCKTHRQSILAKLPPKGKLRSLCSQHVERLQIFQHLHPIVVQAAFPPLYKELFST
Excerpt: This method measures the ability of putative ligands to modulate the interaction between the purified bacterial expressed RORγ ligand binding domain (LBD) and synthetic N-terminally biotinylated peptides which are derived from nuclear receptor coactivator proteins such as but not limited to SRC1 (NcoA1), SRC2 (NcoA2, TIF2), SRC3 (NcoA3), PGC1α, PGC1β, CBP, GRIP1, TRAP220, RIP140.
The ligand-binding domain (LBD) of RORγ was expressed as fusion protein with GST in […] cells using the vector pDEST15. Cells were lysed by lysozyme-treatment and sonication, and the fusion proteins purified over glutathione sepharose (Pharmacia) according to the manufacturers instructions. For screening of compounds for their influence on the RORγ-peptide interaction, the LANCE technology (Perkin Elmer) was applied. This method relies on the binding dependent energy transfer from a donor to an acceptor fluorophor attached to the binding partner of interest. For ease of handling and reduction of background from compound fluorescence LANCE technology makes use of generic fluorophore labels and time resolved detection assays were done in a final volume of 25 μL in a 384 well plate, in a Tris-based buffer system (20 mM Tris-HCl pH6.8; 60 mM KCl, 1 mM DTT; 5 mM MgCl2; 35 ng/μL BSA), containing 20-60 ng/well recombinantly expressed RORγ-LBD fused to GST, 200-600 nM N-terminally biotinylated peptide, 200 ng/well Streptavidin-xIAPC conjugate (Prozyme) and 6-10 ng/well Eu W1024-antiGST (Perkin Elmer). DMSO content of the samples was kept at 1%.
After generation of the Tris-based buffer system, the potentially RORγ modulating ligands were diluted. […] The LANCE signal was detected by a Perkin Elmer EnVision™ Multilabel Counter. The results were visualized by plotting the ratio between the emitted light at 665 nm and 615 nm. […] Ligands that promote the complex formation induce a concentration-dependent increase in time-resolved fluorescent signal.
To assess the antagonistic potential of the compounds, IC50 values were determined using a Ligand Sensing Assay based on Time-resolved Fluorescence Energy Transfer (TR-FRET) as described above. The normalised TR-FRET assay values, using the following equation: 1000*665 nm measurement value/615 nm measurement value, were transferred to the program GraphPad Prism to generate graphs and dose response curves using the following equation: […]
This is identical to the “four parameter logistic equation”. The IC50 values are calculated using this equation. […] Is is understood that the data illustrated below may have reasonable variation depending on the specific conditions and procedures used by the person conducting the test.

RORγ = target: T2, RORγ (UniProt P51449); format: cell-based; settings: 293T cells, 16 h; for pIC50 (FF): firefly (FF) luciferase; for pIC50 (REN): renilla normalised (RENnorm) luciferase
T2 construct: hRORg-LBD|aa259-518|NP_005051.2; hRORgt|aa1-497|NP_001001523 (RORg, t isoform, 497aa); mRORg-LBD|aa264-516|NP_035411
T2 sequence (P51449 1-518): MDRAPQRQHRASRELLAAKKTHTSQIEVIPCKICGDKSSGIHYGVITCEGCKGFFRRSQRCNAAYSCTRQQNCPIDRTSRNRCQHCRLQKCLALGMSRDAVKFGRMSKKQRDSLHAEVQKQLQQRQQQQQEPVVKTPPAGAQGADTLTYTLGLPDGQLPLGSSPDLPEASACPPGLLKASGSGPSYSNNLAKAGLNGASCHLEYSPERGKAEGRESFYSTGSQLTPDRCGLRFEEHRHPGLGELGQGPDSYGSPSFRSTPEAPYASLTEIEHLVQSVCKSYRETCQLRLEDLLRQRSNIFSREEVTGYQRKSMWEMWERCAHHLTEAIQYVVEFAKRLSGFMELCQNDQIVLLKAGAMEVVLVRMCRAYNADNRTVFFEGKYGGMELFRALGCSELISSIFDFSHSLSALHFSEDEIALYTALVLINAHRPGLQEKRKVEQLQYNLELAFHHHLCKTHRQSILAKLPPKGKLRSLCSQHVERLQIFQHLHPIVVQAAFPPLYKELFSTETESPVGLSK
Procedure: Determination of a ligand mediated Gal4 promoter driven transactivation to quantify ligand binding to RORγ was performed as follows: DNA encoding three different RORγ. protein fragments was cloned into vector pCMV-BD (Stratagene). Expression was under control of a CMV promoter and as fusion to the DNA-binding domain of the yeast protein GAL4. Other vectors used were pFR-Luc (Stratagene) as regulated reporter plasmid. pFR-Luc contains a synthetic promoter with five tandem repeats of the yeast GAL4 binding sites that control expression of the Photinus pyralis (American firefly) luciferase gene. In order to improve experimental accuracy the plasmid pRL-CMV was cotransfected. pRL-CMV contains the constitutive CMV promoter, controlling the expression of the Renilla reniformis luciferase.
All Gal4 reporter gene assays were done in 293T cells (DSMZ (German Collection of Microorganisms and Cell Cultures), Braunschweig, Germany, ACC635) grown in Minimum Essential Medium (MEM) with Phenol Red. The medium is supplemented with 10% fetal bovine serum, 0.1 mM nonessential amino acids, 1 mM sodium pyruvate, 1% Glutamax and 100 units Penicilin/[…] per mL at 37° C. in 5% CO2.
For the assay, […] were plated per well in 96 well plates in 100 μL per well, incubated over night at 37° C. in 5% CO2. The following day, medium was discarded and the cells were transiently transfected using 20 μL per well of a OptiMEM—PEI-based transfection-reagent (Sigma-Aldrich, 408727) including the three plasmids described above. About 4 h after addition of the transfection solution, fresh Minimal Essential Medium (MEM, same composition as used for plating cells, but without serum) was added. Then compound stocks, prediluted in MEM (same composition as used for plating cells) were added (final vehicle concentration not exceeding 0.1%).
All experiments were done at least in triplicates.
It is understood that the data illustrated below may have reasonable variation depending on the specific conditions and procedures used by the person conducting the test.

Structure (SMILES)	IC50 [1] [nM]	pIC50 (FF) (RORγ)	pIC50 (REN) (RORγ)
CC(C)(C)NS(=O)(=O)c1ccc(-c2cc(C(=O)N[C@H]3C[C@H](C(=O)O)C3)nn2CC2CCCCC2)c(Cl)c1Cl [Example 112, trans-3-(5-(4-(N-(tert-Butyl)sulfamoyl)-2,3-dichlorophenyl)-1-(cyclohexylmethyl)-1H-pyrazole-3-carboxamido)cyclobutanecarboxylic acid]	316	6.9	6.9
CC(=O)NS(=O)(=O)c1nc(-c2cc(C(C)(C)C)cc(C(C)(C)C)c2)n(CC2CCCCC2)n1 [Example 310, N-((1-(Cyclohexylmethyl)-5-(3,5-di-tert-butylphenyl)-1H-1,2,4-triazol-3-yl)sulfonyl)acetamide]	12600	< 4.7	< 4.7
CC(C)(C)NS(=O)(=O)c1ccc(-c2nc(C(=O)N[C@H]3C[C@H](C(=O)O)C3)nn2CC2CCCCC2)cc1C(C)(C)C [308/10]	6310	< 4.7	< 4.7
COC(C)(C)c1cc(-n2nc(C(=O)NC3COC3)c(Cl)c2CC2CCCCC2)cc(C(C)(C)C)c1 [104/4]	631	6.6	6.6
COC(C)(C)c1cc(-n2nc(C(N)=O)c(Cl)c2CC2CCCCC2)cc(C(C)(C)C)c1 [Example 315/1]	1000	6.0/6.0/6.0	6.0/6.0/6.0
CC(C)(C)c1cc(-c2[nH]c(C(=O)NC3CCOCC3)cc2CC2CCCCC2)cc(C2(C)CC2)c1 [Example 12, 5-(3-(tert-Butyl)-5-(1-methylcyclopropyl)phenyl)-4-(cyclohexylmethyl)-N-(tetrahydro-2H-pyran-4-yl)-1H-pyrrole-2-carboxamide]	1000	6.9	6.8
Cn1c(C(=O)NC2CCOCC2)cc(-c2ccc(S(=O)(=O)NC(C)(C)C)c(C(C)(C)C)c2)c1CC1CCCCC1 [8/2]	398	7.1	7.3
CC(C)(C)c1cc(-n2nc(C(N)=O)c(Cl)c2CC2CCCCC2)cc(C(C)(C)C)n1 [Example 315, 4-Chloro-5-(cyclohexylmethyl)-1-(2,6-di-tert-butylpyridin-4-yl)-1H-pyrazole-3-carboxamide]	126	6.7	6.7
CC(C)(O)CNC(=O)c1nc(-c2cc(C(C)(C)C)c(O)c(C(C)(C)C)c2)n(CC2CCCCC2)n1 [308/6]	1000	6.5	6.5
Cc1cc(-n2nc(C(=O)NC3CC3)cc2CC2CCCCC2)cc(C(C)(C)C)c1 [102/3]	3160	5.7	6.1
Cn1c(C(N)=O)cc(-c2cc(C(C)(C)C)cc(C(C)(C)C)c2)c1CC1CCCCC1 [Example 304, 5-(Cyclohexylmethyl)-4-(3,5-di-tert-butylphenyl)-1-methyl-1H-pyrrole-2-carboxamide]	126	6.1	6.1
CC(C)(C)NS(=O)(=O)c1ccc(-n2nc(C(=O)N[C@H]3C[C@H](C(=O)O)C3)nc2CC2CCCCC2)cc1C(C)(C)C [Example 318, trans-3-(1-(3-(tert-Butyl)-4-(N-(tert-butyl)sulfamoyl)phenyl)-5-(cyclohexylmethyl)-1H-1,2,4-triazole-3-carboxamido)cyclobutanecarboxylic acid]	2000	< 4.7	< 4.7
Cc1c(C(=O)NC2CCOCC2)cc(-c2ccc(S(=O)(=O)NC(C)(C)C)c(C(C)(C)C)c2)n1CC(C)(C)C [Example 302/1]	1580	6.3	6.4
C=CCCC(=O)c1cc(-c2cc(C(C)(C)C)cc(C(C)(C)C)c2)n(CC2CCCCC2)c1C [Example 322, 1-(1-(Cyclohexylmethyl)-5-(3,5-di-tert-butylphenyl)-2-methyl-1H-pyrrol-3-yl)pent-4-en-1-one]	1580	< 4.7	< 4.7
CCNC(=O)c1cc(CC2CCCCC2)n(-c2cc(C(C)(C)C)cc(C(C)(C)C)c2)n1 [Example 102/1]	631	5.9	6.0
CC(C)(C)NS(=O)(=O)c1ccc(-c2cc(C(=O)NCCC(C)(C)C(=O)O)nn2CC2CCCCC2)cc1C(F)(F)F [100/7]	1260	6.2	6.3
C[C@H](O)CNC(=O)c1nc(-c2cc(C(C)(C)C)c(O)c(C(C)(C)C)c2)n(CC2CCCCC2)n1 [308/8]	1580	6.2	6.3
Cn1c(C(=O)NC2CCOCC2)cc(-c2cc(C(C)(C)C)cc(C3(C)CC3)c2)c1CC1CCCCC1 [8/3]	501	7.1	7.3
CC(C)(C)c1cc(-c2nc(C(N)=O)nn2CC2CCCCC2)cc(C(C)(C)C)c1 [308/1]	2510	6.0	6.0
Cc1c(C(=O)NCCC(C)(C)C(=O)O)c(C#N)n(-c2ccc(S(=O)(=O)NC(C)(C)C)c(C(F)(F)F)c2)c1CC1CCCCC1 [Example 10, 4-(1-(4-(N-(tert-Butyl)sulfamoyl)-3-(trifluoromethyl)phenyl)-2-cyano-5-(cyclohexylmethyl)-4-methyl-1H-pyrrole-3-carboxamido)-2,2-dimethylbutanoic acid]	1580	6.9	6.9
Cn1c(C(=O)N[C@H]2C[C@H](C(=O)O)C2)cc(-c2ccc(S(=O)(=O)NC(C)(C)C)c3ccccc23)c1CC1CCCCC1 [8/4]	1000	7.7	–
